Data from US6624188B1, “Method of treatment with compounds having retinoid-like activity and reduced skin toxicity and lacking teratogenic effects” (Allergan, Inc., priority 1992, dated 2003).
Read-outs that look alike come from different tables or passages of the source.

How the values were obtained:
human sebocyte cultures = assay: human sebocyte culture 3H-thymidine incorporation (DNA synthesis, anti-proliferative effect); format: cell-based; settings: human sebocytes, 8 days treatment, FIG. 2
Source text: The retinoid like activity of the compounds used in accordance with the method of treatment of the present invention and of the novel compounds of the invention can be confirmed by several assay procedures. An assay involving human sebocyte cultures measures the inhibition of ^3H-thymidine into cells, and thus measures inhibition of DNA synthesis and thus an anti-proliferative effect on sebocyte (i.e. a sebostatic effect). This assay is also considered a specific assay for effectiveness of a compound as a potential anti-acne drug. The test is conducted as follows.
Face-lift or forehead reduction skins from cosmetic surgeries were used as sources of human sebaceous gland cells (sebocytes).
Isolated sebocytes were plated in type 1 collagen coated-dishes in DMEM/F12 (1:1) medium supplemented with 8% fetal bovine serum, 2% human serum, 10 ng/ml epidermal growth factor, 1 nM cholera toxin, 1 μM hydrocortisone, and penicillin/streptomycin/amphotericin B. Secondary cultures were prepared by plating Dispase dissociated cells in collagen coated 24-well plates.
Sub-confluent secondary cultures were treated with the test compounds or ethanol vehicle every 2-3 days for 8 days in the above medium from which the total serum concentration was reduced to 2% and hydrocortisone was not included. During the last 6 hours of treatment, the cultures were labeled with 2 μCi/ml ^3H-thymidine. DNA from the cells were extracted by thichoroacetic acid and perchloric acid, and assayed for radioactivity by scintillation counting and for content of DNA by the diphenylamine calorimetric method. The results were expressed as CPM/μg DNA, or as per cent of vehicle control which incorporated about 1,000-1,500 cpm/μg DNA.

female hairless mice = format: in vivo; settings: animals died from a group of 5
Experimental: Specifically, tests to determine skin toxicity were performed on certain examplary compounds in accordance with the present invention, and on certain analogous compounds which lack the R3 substituent in accordance with Formula 1, 2 or 3. A “Two Week Acute Skin Toxicity Study of Multiple Topical Applications in Female Hairless Mice” is conducted as follows: a daily dose (expressed in nanomoles) of the “test compound” is applied to the skin on the back of hairless mice (usually a test group of 5 mice for a given compound). The daily dose of the test compound is applied for 5 consecutive days, followed by two days when the test compound is not administered, and is thereafter administered again for 4 more consecutive days. On the 14th day the test animals if still alive, are sacrificed to perform certain studies and tests. In the meanwhile certain tests and observations are made on a daily basis with respect to body weight and skin condition. Skin condition is graded as “flaking/scaling” and “abrasion” on a scale of 0 to +5 where the various numbers correspond to the following observations.
Results of these tests are summarized in Table 3, where daily dose is expressed in nanomoles, weight loss of the test animals is in percentages at the end of the 14 day test period, or at the time the test animal expired, and mortality is expressed with the number of animals which died from a group of 5.

## C/C(=C\c1ccc(C(=O)O)cc1)c1ccc2c(c1)C(C)(C)CCC2(C)C [AGN 191183, reference compound]
Human sebocyte cultures
  inhibition of 3H-thymidine incorporation (effectiveness in sebocyte assay): not effective
Female hairless mice; daily dose 7.5 nanomoles topical
  Death/Total: 0/5
Female hairless mice; daily dose 25 nanomoles topical
  Death/Total: 0/5
Female hairless mice; daily dose 75 nanomoles topical
  Death/Total: 5/5
Female hairless mice; daily dose 80 nanomoles topical
  Death/Total: 5/5
